Source: patent publication US10512654B2, “Pharmaceutical composition including dutasteride and capsule formulation comprising the same” (YUYU PHARMA, INC., priority 2015, dated 2019)
Values after ≈ are worked out from the molar mass of the structure shown.

Legend:
Assay type in all cases: physicochemical
[1] = Solubility of dutasteride in oil (Test Example 1); conditions: for solubility at 24 h: oil or lipid, thermodynamic from solid
Protocol: In order to measure the solubility of dutasteride in oil, the solubility of dutasteride in soybean oil, castor oil, propylene glycol dicaprylate, propylene glycol dicaprate and propylene glycol monolaurate was measured. In a 10 mL vial, a magnetic bar was placed. After 3 mL of the oil was added thereto, approximately 100 mg of dutasteride was added thereto while stirring under a room temperature (25° C.) condition, and the resultant mixture was stirred with 500 rpm or higher. After stirring for 24 hours, 1 mL of the resultant mixture was taken and separated using a centrifuge, and only the supernatant was taken to quantify the amount of dutasteride dissolved in the oil using liquid chromatography.

[2] = Stability of dutasteride in mixture of oil and surfactant (Test Example 3); conditions: storage condition not given
Protocol: A stability test on the pharmaceutical composition of the comparative example dissolving 0.5 mg of dutasteride in a mixture of 95 mg of propylene glycol monocaprylate and 5 mg of polyoxyl 35 castor oil and stored in a transparent vial, and the pharmaceutical composition of the example including dutasteride, propylene glycol monolaurate and polyoxyl 35 castor oil was carried out by identifying the generation of degradation products under an accelerated condition (40° C., 75% RH) and a stress condition (50° C. 95% RH). As shown in the following Table 5, it was seen that the mixture of propylene glycol monolaurate and a surfactant secured the stability of dutasteride unlike mixtures of surfactant with other oils such as propylene glycol monocaprylate.

[3] = Test I on stability of dutasteride depending on oil type (Test Example 2)
Protocol: As samples used in the comparison test, a sample dissolving 1.0 mg of dutasteride in 10.0 mg of propylene glycol monolaurate and stored in a transparent vial, and a sample dissolving 1.0 mg of dutasteride in 10.0 mg of caprylic/capric acid mono-di-glyceride and stored in a transparent vial were used.

[4] = in Propylene Glycol Monocaprylate + Polyoxyl 35 Castor Oil
[5] = in Propylene Glycol Monolaurate + Polyoxyl 35 Castor Oil

Solubility of Dutasteride ([1]; in Propylene Glycol Dicaprylate, room temperature (25° C.), stirring for 24 hours): 1130 µg/mL
solubility at 24 h ([1]; in Propylene Glycol Dicaprate, room temperature (25° C.), stirring for 24 hours): 770 µg/mL (≈ 1.46 mM)
solubility at 24 h ([1]; in Propylene Glycol Monolaurate, room temperature (25° C.), stirring for 24 hours): 10400 µg/mL (≈ 19.7 mM)
Solubility in propylene glycol monolaurate compared to other tested oils ([1]; propylene glycol monolaurate vs other tested (general) oils): ≥ 10 times
Amount of Degradation Products (%) After 3 Weeks [2, 4]: 6.2%
Amount of Degradation Products (%) After 4 Weeks [2, 4]: 12.1%
Amount of Degradation Products (%) After 3 Weeks [2, 5]: None
Amount of Degradation Products (%) After 4 Weeks [2, 5]: None
Amount of Degradation Products (%) After 4 Weeks ([3]; in Caprylic/Capric Acid Mono-Di-Glyceride, Accelerated Condition (40° C., 75% RH)): 0.94%
Amount of Degradation Products (%) After 4 Weeks ([3]; in Caprylic/Capric Acid Mono-Di-Glyceride, Stress Condition (50° C., 95% RH)): 1.75%
Amount of Degradation Products (%) After 4 Weeks ([3]; in Propylene Glycol Monolaurate, Accelerated Condition (40° C., 75% RH)): None
Amount of Degradation Products (%) After 4 Weeks ([3]; in Propylene Glycol Monolaurate, Accelerated Condition (40° C., 75% RH), listed as dutasteride): not generated
Amount of Degradation Products (%) After 4 Weeks ([3]; in Propylene Glycol Monolaurate, Stress Condition (50° C., 95% RH)): 0.32%
Stability of dutasteride in propylene glycol monolaurate compared to caprylic/capric acid mono-di-glyceride ([3]; week 4, accelerated (40° C., 75% RH) and stress condition (50° C., 95% RH), in words): more superior
Structure (SMILES): C[C@]12C=CC(=O)N[C@@H]1CC[C@@H]1[C@@H]2CC[C@]2(C)[C@@H](C(=O)Nc3cc(C(F)(F)F)ccc3C(F)(F)F)CC[C@@H]12 [Dutasteride, 17β-N-(2,5-bis(trifluoromethyl))phenylcarbamoyl-4-aza-5α-androst-1-en-3-one]
